# Results reported in patent publication US12054463B2, “Radiolabeled microtubule imaging compounds and uses thereof” (The Trustees of Columbia University in the City of New York, priority 2017, dated 2024).
# How the values were obtained:
# [1] = system: brain MTs; assay: MicroPET in mice brain; assay type: in vivo; settings: for BBB penetration and brain distribution: microPET, mice
# Description: Blocking with unlabeled MPC-6827 and HD-800 (5 mg/kg/i.v) 20 minute prior to radioligand administration indicates specific binding of radiotracer to brain MTs. […] Time activity curves (TACs) further confirm the washout of [^11C]HD-800 in mice brain and excellent specific binding with unlabeled HD-800 and MPC-6827 as blocking agents (FIG. 9).^23-24
# The distribution pattern of [^18F]FEMPC-6827 in the mice brain is similar to that of [^11C]MPC-6827 and [^11C]HD-800.
# [2] = target: Adenosine; assay: Affinity to brain targets (panel); assay type: binding; settings: Adenosine (A)
# [3] = target: α1A-1C; assay: Affinity to brain targets (panel); assay type: binding
# [4] = target: BZP; assay: Affinity to brain targets (panel); assay type: binding; settings: BZP: benzodiazepine
# [5] = target: Ca++ channel; assay: Affinity to brain targets (panel); assay type: binding
# [6] = target: AMPA; assay: Affinity to brain targets (panel); assay type: binding
# [7] = target: NET (Homo sapiens, UniProt P23975); assay: Affinity to brain targets (panel); assay type: binding; settings: NET: norepinephrine transporter
# Chain of NET (P23975 whole entry): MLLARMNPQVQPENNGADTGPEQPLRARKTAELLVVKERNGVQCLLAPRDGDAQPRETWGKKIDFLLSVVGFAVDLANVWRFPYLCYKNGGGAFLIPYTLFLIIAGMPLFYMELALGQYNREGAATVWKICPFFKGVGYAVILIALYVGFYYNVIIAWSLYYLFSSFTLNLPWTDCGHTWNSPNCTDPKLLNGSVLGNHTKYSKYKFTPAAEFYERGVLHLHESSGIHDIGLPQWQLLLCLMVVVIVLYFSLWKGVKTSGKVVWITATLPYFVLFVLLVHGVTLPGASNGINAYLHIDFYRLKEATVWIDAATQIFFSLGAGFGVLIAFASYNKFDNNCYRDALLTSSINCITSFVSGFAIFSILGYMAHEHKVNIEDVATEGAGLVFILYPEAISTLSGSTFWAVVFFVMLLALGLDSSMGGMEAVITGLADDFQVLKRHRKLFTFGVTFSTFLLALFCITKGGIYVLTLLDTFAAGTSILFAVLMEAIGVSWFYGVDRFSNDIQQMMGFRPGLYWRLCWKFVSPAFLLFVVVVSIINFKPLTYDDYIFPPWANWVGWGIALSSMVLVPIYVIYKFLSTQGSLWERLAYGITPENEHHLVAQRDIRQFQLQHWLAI
# [8] = target: NK; assay: Affinity to brain targets (panel); assay type: binding; settings: NK: neurokinin
# [9] = target: Sigma1 (Homo sapiens, UniProt Q99720); assay: Affinity to brain targets (panel); assay type: binding
# Chain of Sigma1 (Q99720 whole entry): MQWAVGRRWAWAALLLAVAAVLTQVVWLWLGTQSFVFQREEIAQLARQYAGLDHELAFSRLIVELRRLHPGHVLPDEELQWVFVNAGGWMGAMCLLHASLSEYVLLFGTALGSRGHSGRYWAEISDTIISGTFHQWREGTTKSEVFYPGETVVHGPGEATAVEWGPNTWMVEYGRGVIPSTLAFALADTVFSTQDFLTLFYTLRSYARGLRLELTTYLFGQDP
# [10] = target: Na+ Channel; assay: Affinity to brain targets (panel); assay type: binding
# [11] = target: mGluR; assay: Affinity to brain targets (panel); assay type: binding; settings: mGluR (mGluRs): metabotropic glutamate receptors
# [12] = target: NOP (Homo sapiens, UniProt P41146); assay: Affinity to brain targets (panel); assay type: binding
# [13] = target: PBR (Homo sapiens, UniProt P30536); assay: Affinity to brain targets (panel); assay type: binding
# Chain of PBR (P30536 whole entry, species assumed): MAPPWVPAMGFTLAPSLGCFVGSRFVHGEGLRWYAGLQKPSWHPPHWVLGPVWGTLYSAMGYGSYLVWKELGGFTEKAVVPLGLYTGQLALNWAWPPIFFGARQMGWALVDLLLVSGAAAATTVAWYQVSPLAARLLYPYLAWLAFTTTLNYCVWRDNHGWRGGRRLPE
# [14] = target: T1, Oxytocin (Homo sapiens, UniProt P30559); assay: Affinity to brain targets (panel); assay type: binding
# T1 sequence (P30559 1-389): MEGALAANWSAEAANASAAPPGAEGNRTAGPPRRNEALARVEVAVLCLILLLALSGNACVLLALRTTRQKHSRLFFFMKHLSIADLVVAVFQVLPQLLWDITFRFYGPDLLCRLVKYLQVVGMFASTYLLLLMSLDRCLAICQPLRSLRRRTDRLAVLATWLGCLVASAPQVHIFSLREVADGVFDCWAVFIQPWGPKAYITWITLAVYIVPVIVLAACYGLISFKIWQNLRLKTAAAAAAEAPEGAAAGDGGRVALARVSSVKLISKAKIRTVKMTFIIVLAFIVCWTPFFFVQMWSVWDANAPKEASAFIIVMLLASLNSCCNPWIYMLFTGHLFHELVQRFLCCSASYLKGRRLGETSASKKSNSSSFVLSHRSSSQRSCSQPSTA
# [15] = target: Smoothened (Homo sapiens, UniProt Q99835); assay: Affinity to brain targets (panel); assay type: binding
# [16] = target: KA; assay: Affinity to brain targets (panel); assay type: binding; settings: KA (KAR): Kainate
# [17] = target: DAT (Homo sapiens, UniProt Q01959); assay: Affinity to brain targets (panel); assay type: binding; settings: DAT: dopamine transporters
# Chain of DAT (Q01959 whole entry, species assumed): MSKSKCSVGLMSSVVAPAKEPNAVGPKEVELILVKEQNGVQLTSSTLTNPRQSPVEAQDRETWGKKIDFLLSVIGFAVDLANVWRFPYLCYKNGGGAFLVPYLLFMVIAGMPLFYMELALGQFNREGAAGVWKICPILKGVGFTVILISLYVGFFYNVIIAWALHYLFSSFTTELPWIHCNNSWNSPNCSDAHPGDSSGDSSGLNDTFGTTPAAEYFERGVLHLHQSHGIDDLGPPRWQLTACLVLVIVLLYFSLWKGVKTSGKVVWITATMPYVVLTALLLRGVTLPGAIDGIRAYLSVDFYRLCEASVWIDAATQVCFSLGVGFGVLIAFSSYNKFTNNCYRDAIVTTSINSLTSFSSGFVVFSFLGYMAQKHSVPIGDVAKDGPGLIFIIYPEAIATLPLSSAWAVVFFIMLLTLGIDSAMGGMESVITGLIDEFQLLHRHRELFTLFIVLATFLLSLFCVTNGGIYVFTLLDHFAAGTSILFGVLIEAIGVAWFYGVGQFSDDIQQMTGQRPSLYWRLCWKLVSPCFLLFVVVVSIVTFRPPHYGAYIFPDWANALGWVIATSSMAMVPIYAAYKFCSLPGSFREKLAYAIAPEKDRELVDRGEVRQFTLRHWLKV
# [18] = target: DOR (Homo sapiens, UniProt P41143); assay: Affinity to brain targets (panel); assay type: binding; settings: DOR: delta opioid receptors
# Chain of DOR (P41143 whole entry): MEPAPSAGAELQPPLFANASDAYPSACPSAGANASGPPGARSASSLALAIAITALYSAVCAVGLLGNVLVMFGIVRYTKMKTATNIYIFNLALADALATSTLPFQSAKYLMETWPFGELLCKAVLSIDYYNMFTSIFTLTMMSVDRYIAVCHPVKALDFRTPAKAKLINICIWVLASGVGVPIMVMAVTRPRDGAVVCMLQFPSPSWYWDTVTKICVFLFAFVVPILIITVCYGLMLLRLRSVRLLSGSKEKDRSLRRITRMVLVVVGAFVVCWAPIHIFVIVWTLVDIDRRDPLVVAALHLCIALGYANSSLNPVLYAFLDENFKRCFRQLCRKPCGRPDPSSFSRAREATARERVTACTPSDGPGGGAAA
# [19] = target: EP; assay: Affinity to brain targets (panel); assay type: binding; settings: EP: prostanoid receptors
# [20] = target: GABA; assay: Affinity to brain targets (panel); assay type: binding
# [21] = target: HERG (Homo sapiens, UniProt Q12809); assay: Affinity to brain targets (panel); assay type: binding; settings: HERG: human ether-a-go-go
# [22] = target: KOR (Homo sapiens, UniProt P41145); assay: Affinity to brain targets (panel); assay type: binding; settings: KOR: kappa opioid receptors
# Chain of KOR (P41145 whole entry): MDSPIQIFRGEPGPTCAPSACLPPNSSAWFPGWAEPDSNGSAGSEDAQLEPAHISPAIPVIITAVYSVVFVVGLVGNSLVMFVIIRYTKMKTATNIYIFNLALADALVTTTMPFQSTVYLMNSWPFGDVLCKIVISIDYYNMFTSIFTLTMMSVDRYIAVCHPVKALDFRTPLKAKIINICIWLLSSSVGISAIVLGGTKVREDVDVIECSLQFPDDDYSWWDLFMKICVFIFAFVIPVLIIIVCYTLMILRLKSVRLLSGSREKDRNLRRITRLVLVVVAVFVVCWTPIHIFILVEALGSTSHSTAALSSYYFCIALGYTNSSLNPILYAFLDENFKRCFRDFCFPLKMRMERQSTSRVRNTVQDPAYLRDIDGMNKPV
# [23] = target: M; assay: Affinity to brain targets (panel); assay type: binding; settings: M: muscarinic
# [24] = target: H3, H4; assay: Affinity to brain targets (panel); assay type: binding; settings: H3, H4: histamine
# [25] = target: MDR1 (Homo sapiens, UniProt P08183); assay: Affinity to brain targets (panel); assay type: binding; settings: MDR1: multidrug resistance
# Chain of MDR1 (P08183 whole entry, species assumed): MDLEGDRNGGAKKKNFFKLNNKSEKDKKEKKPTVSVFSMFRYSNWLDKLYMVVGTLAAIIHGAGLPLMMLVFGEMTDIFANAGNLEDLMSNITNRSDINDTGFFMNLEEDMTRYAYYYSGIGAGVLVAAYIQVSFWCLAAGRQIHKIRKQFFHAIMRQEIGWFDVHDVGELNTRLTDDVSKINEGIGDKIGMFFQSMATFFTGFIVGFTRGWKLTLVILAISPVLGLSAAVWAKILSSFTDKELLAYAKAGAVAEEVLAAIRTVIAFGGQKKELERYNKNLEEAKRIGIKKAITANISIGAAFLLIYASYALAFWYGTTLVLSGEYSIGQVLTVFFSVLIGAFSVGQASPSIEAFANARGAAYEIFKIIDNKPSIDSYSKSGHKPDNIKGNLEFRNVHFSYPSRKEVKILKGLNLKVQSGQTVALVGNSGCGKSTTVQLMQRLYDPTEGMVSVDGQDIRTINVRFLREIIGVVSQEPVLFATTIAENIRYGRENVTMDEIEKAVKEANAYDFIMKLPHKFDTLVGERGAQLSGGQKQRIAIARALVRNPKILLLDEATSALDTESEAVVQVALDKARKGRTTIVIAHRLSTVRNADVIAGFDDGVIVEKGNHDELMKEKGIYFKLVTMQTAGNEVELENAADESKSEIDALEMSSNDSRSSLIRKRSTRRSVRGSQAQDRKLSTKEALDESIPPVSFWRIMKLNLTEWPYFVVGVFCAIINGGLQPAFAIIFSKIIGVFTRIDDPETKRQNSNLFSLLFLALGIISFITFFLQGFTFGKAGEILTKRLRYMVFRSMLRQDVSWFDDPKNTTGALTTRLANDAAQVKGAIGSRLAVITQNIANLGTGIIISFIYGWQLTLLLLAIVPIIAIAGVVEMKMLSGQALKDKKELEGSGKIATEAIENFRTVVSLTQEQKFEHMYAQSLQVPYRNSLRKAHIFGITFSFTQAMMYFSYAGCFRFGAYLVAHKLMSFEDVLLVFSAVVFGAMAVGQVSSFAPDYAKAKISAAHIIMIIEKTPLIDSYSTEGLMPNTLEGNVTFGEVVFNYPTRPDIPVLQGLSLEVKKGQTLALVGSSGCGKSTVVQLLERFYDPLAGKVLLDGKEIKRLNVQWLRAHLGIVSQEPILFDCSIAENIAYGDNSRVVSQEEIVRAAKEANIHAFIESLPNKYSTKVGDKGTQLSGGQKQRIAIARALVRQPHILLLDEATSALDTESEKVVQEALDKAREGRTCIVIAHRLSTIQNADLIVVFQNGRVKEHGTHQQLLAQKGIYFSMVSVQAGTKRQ
# [26] = target: H1 (Homo sapiens, UniProt P35367); assay: Affinity to brain targets (panel); assay type: binding; settings: H1: histamine
# [27] = target: H2 (Homo sapiens, UniProt P25021); assay: Affinity to brain targets (panel); assay type: binding; settings: H2: histamine
# [28] = target: MOR (Homo sapiens, UniProt P35372); assay: Affinity to brain targets (panel); assay type: binding; settings: MOR: mu opioid receptor
# Chain of MOR (P35372 whole entry): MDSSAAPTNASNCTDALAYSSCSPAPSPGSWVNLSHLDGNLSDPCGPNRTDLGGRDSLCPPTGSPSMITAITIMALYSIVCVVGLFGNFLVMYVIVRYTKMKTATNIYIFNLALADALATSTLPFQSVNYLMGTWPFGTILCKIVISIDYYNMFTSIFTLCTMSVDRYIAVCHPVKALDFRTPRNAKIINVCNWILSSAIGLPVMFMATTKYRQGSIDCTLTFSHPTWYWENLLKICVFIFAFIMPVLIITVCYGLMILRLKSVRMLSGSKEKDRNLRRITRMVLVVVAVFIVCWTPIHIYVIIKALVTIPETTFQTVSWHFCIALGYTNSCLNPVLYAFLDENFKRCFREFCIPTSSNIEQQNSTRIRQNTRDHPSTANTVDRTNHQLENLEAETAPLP
# [29] = target: NMDA; assay: Affinity to brain targets (panel); assay type: binding
# [30] = target: SERT (Homo sapiens, UniProt P31645); assay: Affinity to brain targets (panel); assay type: binding; settings: SERT: serotonin transporter
# Chain of SERT (P31645 whole entry, species assumed): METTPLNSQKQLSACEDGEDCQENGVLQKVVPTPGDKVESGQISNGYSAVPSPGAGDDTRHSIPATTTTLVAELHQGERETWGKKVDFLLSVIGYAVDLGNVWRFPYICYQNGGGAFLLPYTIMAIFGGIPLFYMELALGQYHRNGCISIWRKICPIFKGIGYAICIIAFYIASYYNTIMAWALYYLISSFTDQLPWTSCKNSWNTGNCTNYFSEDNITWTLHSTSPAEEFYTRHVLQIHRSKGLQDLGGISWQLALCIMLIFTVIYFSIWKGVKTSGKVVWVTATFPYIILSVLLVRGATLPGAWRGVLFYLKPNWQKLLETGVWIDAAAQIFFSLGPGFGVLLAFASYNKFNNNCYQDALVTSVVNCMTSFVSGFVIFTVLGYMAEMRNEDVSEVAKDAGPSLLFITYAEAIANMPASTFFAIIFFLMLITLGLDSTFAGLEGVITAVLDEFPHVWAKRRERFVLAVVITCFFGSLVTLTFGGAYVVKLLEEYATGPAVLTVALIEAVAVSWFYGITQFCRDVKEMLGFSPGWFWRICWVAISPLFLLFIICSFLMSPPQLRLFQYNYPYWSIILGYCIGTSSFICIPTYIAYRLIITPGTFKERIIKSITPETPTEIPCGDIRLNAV
# [31] = target: Sigma2 (Homo sapiens, UniProt Q5BJF2); assay: Affinity to brain targets (panel); assay type: binding; settings: Sigma2 (Sigma 2)
# Chain of Sigma2 (Q5BJF2 whole entry): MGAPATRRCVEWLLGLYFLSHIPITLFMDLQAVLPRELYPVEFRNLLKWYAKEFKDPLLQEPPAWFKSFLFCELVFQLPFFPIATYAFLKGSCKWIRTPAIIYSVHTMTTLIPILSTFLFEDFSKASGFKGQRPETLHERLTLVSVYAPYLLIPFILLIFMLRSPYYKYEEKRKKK
# [32] = target: I; assay: Affinity to brain targets (panel); assay type: binding
# [33] = target: VMAT; assay: Affinity to brain targets (panel); assay type: binding; settings: VMAT (VMAT 1,2): vesicular monoamine transporter
# [34] = target: NT; assay: Affinity to brain targets (panel); assay type: binding; settings: NT: neurotrophin
# [35] = target: PKC; assay: Affinity to brain targets (panel); assay type: binding; settings: PKC: Protein kinase C
# [36] = target: 5-HT1A-1E; assay: Affinity to brain targets (panel); assay type: binding
# [37] = target: 5-HT2A-2C; assay: Affinity to brain targets (panel); assay type: binding
# [38] = target: 5-HT3-7; assay: Affinity to brain targets (panel); assay type: binding
# [39] = target: α2A-2C; assay: Affinity to brain targets (panel); assay type: binding
# [40] = target: β1-3; assay: Affinity to brain targets (panel); assay type: binding
# [41] = target: CB1, CB2; assay: Affinity to brain targets (panel); assay type: binding
# [42] = target: D1-D5; assay: Affinity to brain targets (panel); assay type: binding
# [43] = system: panel of kinases; settings: cited from earlier work
# [44] = references 12-14; cited from earlier work
# [45] = system: tumor xenografts; settings: references 12-14; cited from earlier work
smiles,measurement,setting,value
Cc1nc(N(C)c2ccc(OCC[18F])cc2)c2ccccc2n1 [[^18F]FEMPC-6827],BBB penetration and brain distribution,[1],blood brain barrier penetration and accumulation in the brain
Cc1nc(N(C)c2ccc(OCCF)cc2)c2c(C)coc2n1 [FE-HD-800],Ki,[2],> 10 µM
same,Ki,[3],> 10 µM
same,Ki,[4],> 10 µM
same,Ki,[5],> 10 µM
same,Ki,[6],> 10 µM
same,Ki,[7],> 10 µM
same,Ki,[8],> 10 µM
same,Ki,[9],0.832 µM
same,Ki,[10],> 10 µM
same,Ki,[11],> 10 µM
same,Ki,[12],> 10 µM
same,Ki,[13],> 10 µM
same,Ki,[14],> 10 µM
same,Ki,[15],> 10 µM
same,Ki,[16],> 10 µM
same,Ki,[17],> 10 µM
same,Ki,[18],> 10 µM
same,Ki,[19],> 10 µM
same,Ki,[20],> 10 µM
same,Ki,[21],> 10 µM
same,Ki,[22],> 10 µM
same,Ki,[23],> 10 µM
same,Ki,[24],> 10 µM
same,Ki,[25],> 10 µM
same,Ki,[26],3.37 µM
same,Ki,[27],> 10 µM
same,Ki,[28],> 10 µM
same,Ki,[29],> 10 µM
same,Ki,[30],> 10 µM
same,Ki,[31],2.46 µM
same,Ki,[32],> 10 µM
same,Ki,[33],> 10 µM
same,Ki,[34],> 10 µM
same,Ki,[35],> 10 µM
same,Ki,[36],> 10 µM
same,Ki,[37],> 10 µM
same,Ki,[38],> 10 µM
same,Ki,[39],> 10 µM
same,Ki,[40],> 10 µM
same,Ki,[41],> 10 µM
same,Ki,[42],> 10 µM
Cc1nc(N(C)c2ccc(OCCF)cc2)c2ccccc2n1 [FEMPC-6827],Ki,[2],> 10 µM
same,Ki,[3],> 10 µM
same,Ki,[4],> 10 µM
same,Ki,[5],> 10 µM
same,Ki,[6],> 10 µM
same,Ki,[7],> 10 µM
same,Ki,[8],> 10 µM
same,Ki,[9],0.051 µM
same,Ki,[10],> 10 µM
same,Ki,[11],> 10 µM
same,Ki,[12],> 10 µM
same,Ki,[13],1.59 µM
same,Ki,[14],> 10 µM
same,Ki,[15],> 10 µM
same,Ki,[16],> 10 µM
same,Ki,[17],> 10 µM
same,Ki,[18],> 10 µM
same,Ki,[19],> 10 µM
same,Ki,[20],> 10 µM
same,Ki,[21],> 10 µM
same,Ki,[22],> 10 µM
same,Ki,[23],> 10 µM
same,Ki,[24],> 10 µM
same,Ki,[25],> 10 µM
same,Ki,[26],0.305 µM
same,Ki,[27],2.31 µM
same,Ki,[28],> 10 µM
same,Ki,[29],> 10 µM
same,Ki,[30],> 10 µM
same,Ki,[31],2.46 µM
same,Ki,[32],> 10 µM
same,Ki,[33],> 10 µM
same,Ki,[34],> 10 µM
same,Ki,[35],> 10 µM
same,Ki,[36],> 10 µM
same,Ki,[37],> 10 µM
same,Ki,[38],> 10 µM
same,Ki,[39],> 10 µM
same,Ki,[40],> 10 µM
same,Ki,[41],> 10 µM
same,Ki,[42],> 10 µM
"COc1ccc2c(c1)NC(=O)CN2c1nc(C)nc2ccccc12 [WX-132-18B, 7-Methoxy-4-(2-methylquinazolin-4-yl)-3,4-dihydroquinoxalin-2(1H)-one]",binding to a panel / variety of kinases,[43],selective
same,BBB penetration,[44],BBB penetrant
same,tumor growth inhibition (TGI) compared with paclitaxel,[45],higher tumor growth inhibition (TGI) than paclitaxel
Cc1coc2ncnc(N(C)c3ccc(O[11CH3])cc3)c12 [[^11C]HD-800],BBB penetration and brain distribution,[1],penetrated the BBB followed by a homogeneous distribution in the mouse brain
same,blocking of brain activity,[1]; unlabeled MPC-6827 and HD-800 (5 mg/kg/i.v) 20 minute prior to radioligand,significant decreasing activity
